Measured values published in ChEMBL document CHEMBL5260848, “Recent advancements in the development of bioactive pyrazoline derivatives” (Eur J Med Chem, 2020).
pKi: −log10 of the molar value. ≈ marks a conversion by molar mass, not a printed value.

Tests used:
Aspergillus fumigatus = assay: Antifungal activity against Aspergillus fumigatus incubated for 24 hrs by disc diffusion method; format: functional
Staphylococcus aureus = assay: microbe, parasite or virus in culture; conditions: 24 h
Aspergillus flavus = assay: Antifungal activity against Aspergillus flavus incubated for 24 hrs by disc diffusion method; format: functional
[1] = tested on: Mycobacterium tuberculosis; assay: microbe, parasite or virus in culture; conditions: 120 h
Pseudomonas aeruginosa = assay: microbe, parasite or virus in culture; conditions: 24 h
Candida albicans = assay: microbe, parasite or virus in culture; conditions: 24 h
Escherichia coli = assay: Antibacterial activity against Escherichia coli incubated for 24 hrs by disc diffusion method; format: functional
Aspergillus niger = assay: Antifungal activity against Aspergillus niger incubated for 24 hrs by disc diffusion method; format: functional
Bacillus subtilis = assay: microbe, parasite or virus in culture; conditions: 24 h
[2] = molecular target: T1, Amine oxidase [flavin-containing] B (Homo sapiens, UniProt P27338)
T1 sequence (P27338 whole entry): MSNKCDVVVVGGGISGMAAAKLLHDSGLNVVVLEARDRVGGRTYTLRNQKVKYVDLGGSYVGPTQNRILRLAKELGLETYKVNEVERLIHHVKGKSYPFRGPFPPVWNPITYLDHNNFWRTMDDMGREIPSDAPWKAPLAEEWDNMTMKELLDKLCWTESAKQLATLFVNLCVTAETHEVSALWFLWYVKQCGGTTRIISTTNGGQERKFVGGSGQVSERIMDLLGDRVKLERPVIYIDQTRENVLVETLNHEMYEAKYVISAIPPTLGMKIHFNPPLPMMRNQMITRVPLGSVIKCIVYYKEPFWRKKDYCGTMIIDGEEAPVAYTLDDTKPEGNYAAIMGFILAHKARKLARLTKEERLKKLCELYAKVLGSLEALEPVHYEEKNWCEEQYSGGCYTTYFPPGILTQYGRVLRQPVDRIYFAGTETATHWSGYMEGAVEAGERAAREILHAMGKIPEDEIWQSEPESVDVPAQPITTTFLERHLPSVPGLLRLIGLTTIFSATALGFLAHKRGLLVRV

Homo sapiens = organism: Homo sapiens; assay: Selectivity index, ratio of Ki for human MAO-A to Ki for human MAO-B
[3] = molecular target: T2, Amine oxidase [flavin-containing] A (Homo sapiens, UniProt P21397)
T2 sequence (P21397 whole entry): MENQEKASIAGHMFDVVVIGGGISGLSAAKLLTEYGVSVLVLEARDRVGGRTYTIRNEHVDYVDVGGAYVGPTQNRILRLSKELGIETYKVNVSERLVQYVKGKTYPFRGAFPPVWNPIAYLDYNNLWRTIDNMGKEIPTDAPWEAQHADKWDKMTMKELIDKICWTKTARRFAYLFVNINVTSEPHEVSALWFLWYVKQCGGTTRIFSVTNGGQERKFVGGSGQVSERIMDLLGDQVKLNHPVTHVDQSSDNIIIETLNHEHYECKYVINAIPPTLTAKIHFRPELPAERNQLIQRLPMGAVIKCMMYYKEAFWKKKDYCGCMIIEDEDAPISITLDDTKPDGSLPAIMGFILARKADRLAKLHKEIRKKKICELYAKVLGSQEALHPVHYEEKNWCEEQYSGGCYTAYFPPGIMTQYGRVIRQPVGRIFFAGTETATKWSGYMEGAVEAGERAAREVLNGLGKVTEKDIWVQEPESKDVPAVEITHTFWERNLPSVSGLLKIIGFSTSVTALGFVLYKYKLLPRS

Mus musculus [4] = organism: Mus musculus; assay: Antidepressant activity in mouse assessed as […] by tail suspension test; format: functional
Mus musculus [5] = organism: Mus musculus; assay: Antidepressant activity in mouse assessed as […] by forced swimming test; format: functional
Mus musculus [6] = organism: Mus musculus; assay: Antidepressant activity in Swiss albino mouse assessed as decrease in immobility time by tail suspension test; format: functional
Mus musculus [7] = organism: Mus musculus; assay: Antidepressant activity in Swiss albino mouse assessed as decrease in immobility time by forced swimming test; format: functional

COc1ccc(C2CC(c3ccccc3)=NN2C(=O)NNS(=O)(=O)c2ccc(F)cc2)cc1 (centres undefined)
MIC (Aspergillus fumigatus): 25 µg/mL (≈ 53.4 µM) | MIC (Staphylococcus aureus): 25 µg/mL (≈ 53.4 µM) | MIC (Aspergillus flavus): 25 µg/mL (≈ 53.4 µM) | MIC [1]: 0.8 µg/mL (≈ 1.71 µM) | MIC (Pseudomonas aeruginosa): 25 µg/mL (≈ 53.4 µM) | MIC (Candida albicans): 25 µg/mL (≈ 53.4 µM) | MIC (Escherichia coli): 25 µg/mL (≈ 53.4 µM) | MIC (Aspergillus niger): 25 µg/mL (≈ 53.4 µM) | MIC (Bacillus subtilis): 25 µg/mL (≈ 53.4 µM)

C=CCNC(=S)N1N=C(c2ccc(C)cc2)CC1c1ccc(F)cc1 (centres undefined)
pKi [2]: 6.70 | Ratio Ki (Homo sapiens): 0.000464 | pKi [3]: 10.00

C=CCNC(=S)N1N=C(c2ccccc2)CC1c1ccc(F)cc1 (centres undefined)
pKi [2]: 6.70 | Ratio Ki (Homo sapiens): 0.000464 | pKi [3]: 10.00

Cc1ccc(C2CC(c3ccccc3)=NN2C(=O)NNS(=O)(=O)c2ccc(F)cc2F)cc1 (centres undefined)
MIC (Aspergillus fumigatus): 25 µg/mL (≈ 53.1 µM) | MIC (Staphylococcus aureus): 25 µg/mL (≈ 53.1 µM) | MIC (Aspergillus flavus): 25 µg/mL (≈ 53.1 µM) | MIC [1]: 0.8 µg/mL (≈ 1.7 µM) | MIC (Pseudomonas aeruginosa): 25 µg/mL (≈ 53.1 µM) | MIC (Candida albicans): 25 µg/mL (≈ 53.1 µM) | MIC (Escherichia coli): 25 µg/mL (≈ 53.1 µM) | MIC (Aspergillus niger): 25 µg/mL (≈ 53.1 µM) | MIC (Bacillus subtilis): 25 µg/mL (≈ 53.1 µM)

CCNC(=S)N1N=C(c2ccc(OC)cc2)CC1c1ccc(F)cc1 (centres undefined)
pKi [2]: 6.70 | Ratio Ki (Homo sapiens): 0.000464 | pKi [3]: 10.00

Clc1ccc(C2=NNC(c3ccc(Cl)cc3)C2)cc1 (centres undefined)
Time (Mus musculus [4]): 21.17 s | Time (Mus musculus [5]): 21.17 s

COc1ccc(C2CC(c3ccccn3)=NN2)cc1OC (centres undefined)
Time (Mus musculus [4]): 21.17 s | Time (Mus musculus [5]): 21.17 s

Clc1ccc(C2CC(c3ccccn3)=NN2)cc1 (centres undefined)
Time (Mus musculus [4]): 21.17 s | Time (Mus musculus [5]): 21.17 s

CNC(=S)N1N=C(c2ccc(C)cc2)CC1c1ccc(F)cc1 (centres undefined)
pKi [2]: 6.70 | Ratio Ki (Homo sapiens): 0.000464 | pKi [3]: 10.00

O=C(NNS(=O)(=O)c1ccc(F)cc1)N1N=C(c2ccccc2)CC1c1ccccc1 (centres undefined)
MIC (Aspergillus fumigatus): 25 µg/mL (≈ 57 µM) | MIC (Staphylococcus aureus): 25 µg/mL (≈ 57 µM) | MIC (Aspergillus flavus): 25 µg/mL (≈ 57 µM) | MIC [1]: 0.8 µg/mL (≈ 1.82 µM) | MIC (Pseudomonas aeruginosa): 25 µg/mL (≈ 57 µM) | MIC (Candida albicans): 25 µg/mL (≈ 57 µM) | MIC (Escherichia coli): 25 µg/mL (≈ 57 µM) | MIC (Aspergillus niger): 25 µg/mL (≈ 57 µM) | MIC (Bacillus subtilis): 25 µg/mL (≈ 57 µM)

CNC(=S)N1N=C(c2ccc(Cl)cc2)CC1c1ccc(F)cc1 (centres undefined)
pKi [2]: 6.70 | Ratio Ki (Homo sapiens): 0.000464 | pKi [3]: 10.00

Fc1ccc(C2CC(c3ccccc3)=NN2C(=S)Nc2ccccc2)cc1 (centres undefined)
pKi [2]: 6.70 | Ratio Ki (Homo sapiens): 0.000464 | pKi [3]: 10.00

c1ccc(C2=NNC(c3cccs3)C2)nc1 (centres undefined)
Time (Mus musculus [4]): 21.17 s | Time (Mus musculus [5]): 21.17 s

c1csc(C2CC(c3cccc4ccccc34)=NN2)c1 (centres undefined)
Time (Mus musculus [4]): 21.17 s | Time (Mus musculus [5]): 21.17 s

Cc1nc(-c2ccc(F)cc2)ccc1C1=NNC(c2ccc(Br)cc2)C1 (centres undefined)
Time (Mus musculus [6]): 70.33 s | Time (Mus musculus [7]): 66.67 s

CCNC(=S)N1N=C(c2ccc(Cl)cc2)CC1c1ccc(F)cc1 (centres undefined)
pKi [2]: 6.70 | Ratio Ki (Homo sapiens): 0.000464 | pKi [3]: 10.00

C=CCNC(=S)N1N=C(c2ccc(OC)cc2)CC1c1ccc(F)cc1 (centres undefined)
pKi [2]: 6.70 | pKi [3]: 10.00

COc1ccc(C2=NN(C(=S)Nc3ccccc3)C(c3ccc(F)cc3)C2)cc1 (centres undefined)
pKi [2]: 6.70 | Ratio Ki (Homo sapiens): 0.000464 | pKi [3]: 10.00

COc1cc(-c2ccc(C3=NNC(c4ccc(Br)cc4)C3)c(C)n2)cc(OC)c1OC (centres undefined)
Time (Mus musculus [6]): 70.33 s | Time (Mus musculus [7]): 66.67 s

O=C(NNS(=O)(=O)c1ccc(F)cc1)N1N=C(c2ccccc2)CC1c1ccc(F)cc1 (centres undefined)
MIC (Aspergillus fumigatus): 25 µg/mL (≈ 54.8 µM) | MIC (Staphylococcus aureus): 25 µg/mL (≈ 54.8 µM) | MIC (Aspergillus flavus): 25 µg/mL (≈ 54.8 µM) | MIC [1]: 0.8 µg/mL (≈ 1.75 µM) | MIC (Pseudomonas aeruginosa): 25 µg/mL (≈ 54.8 µM) | MIC (Candida albicans): 25 µg/mL (≈ 54.8 µM) | MIC (Escherichia coli): 25 µg/mL (≈ 54.8 µM) | MIC (Aspergillus niger): 25 µg/mL (≈ 54.8 µM) | MIC (Bacillus subtilis): 25 µg/mL (≈ 54.8 µM)

Cc1ccc(C2CC(c3ccccc3)=NN2C(=O)NNS(=O)(=O)c2ccc(F)cc2)cc1 (centres undefined)
MIC (Aspergillus fumigatus): 25 µg/mL (≈ 55.2 µM) | MIC (Staphylococcus aureus): 25 µg/mL (≈ 55.2 µM) | MIC (Aspergillus flavus): 25 µg/mL (≈ 55.2 µM) | MIC [1]: 0.8 µg/mL (≈ 1.77 µM) | MIC (Pseudomonas aeruginosa): 25 µg/mL (≈ 55.2 µM) | MIC (Candida albicans): 25 µg/mL (≈ 55.2 µM) | MIC (Escherichia coli): 25 µg/mL (≈ 55.2 µM) | MIC (Aspergillus niger): 25 µg/mL (≈ 55.2 µM) | MIC (Bacillus subtilis): 25 µg/mL (≈ 55.2 µM)

O=C(NNS(=O)(=O)c1ccc(F)cc1F)N1N=C(c2ccccc2)CC1c1ccc(Br)cc1 (centres undefined)
MIC (Aspergillus fumigatus): 25 µg/mL (≈ 46.7 µM) | MIC (Staphylococcus aureus): 25 µg/mL (≈ 46.7 µM) | MIC (Aspergillus flavus): 25 µg/mL (≈ 46.7 µM) | MIC [1]: 0.8 µg/mL (≈ 1.49 µM) | MIC (Pseudomonas aeruginosa): 25 µg/mL (≈ 46.7 µM) | MIC (Candida albicans): 25 µg/mL (≈ 46.7 µM) | MIC (Escherichia coli): 25 µg/mL (≈ 46.7 µM) | MIC (Aspergillus niger): 25 µg/mL (≈ 46.7 µM) | MIC (Bacillus subtilis): 25 µg/mL (≈ 46.7 µM)
